Measured values as given in patent US20090239891A1 (priority 2006, published 2009).

Assay: Analgesic effect (% MPE) by tail flick method after intravenous injection
Type: in vivo
Conditions: mice

buprenorphine hydrochloride
% MPE (0.08 hours after i.v. 2.4 mg/kg): 0% | % MPE (0.25 hours after i.v. 2.4 mg/kg): 53.7% | % MPE (0.5 hours after i.v. 2.4 mg/kg): 96.3% | % MPE (1 hour after i.v. 2.4 mg/kg): 100% | % MPE (2 hours after i.v. 2.4 mg/kg): 77.4% | % MPE (3 hours after i.v. 2.4 mg/kg): 93.3% | % MPE (5 hours after i.v. 2.4 mg/kg): 100% | % MPE (7 hours after i.v. 2.4 mg/kg): 72.7% | % MPE (9 hours after i.v. 2.4 mg/kg, hydrochloride, 2.4 mg/kg): 54% | % MPE (9 hours after i.v. 2.4 mg/kg, listed as buprenorphine, hydrochloride, 2.4 mg/kg): 54.4% | % MPE (12 hours after i.v. 2.4 mg/kg, hydrochloride, 2.4 mg/kg): 0% | % MPE (12 hours after i.v. 2.4 mg/kg, listed as buprenorphine, hydrochloride, 2.4 mg/kg): 8.1% | % MPE (18 hours after i.v. 2.4 mg/kg): 0% | % MPE (24 hours after i.v. 2.4 mg/kg): 0% | onset of analgesic effect (after i.v. 2.4 mg/kg): 15 min | duration of analgesic effect (after i.v. bolus 2.4 mg/kg): 9 h | analgesic effect observed (between 12 and 24 hours after i.v. 2.4 mg/kg): No analgesic effect
